Test results as given in US6747057B2 (priority 2001, dated 2004).

Columns and labels:
[1] = tested on: Tau phosphorylation in primary cultured cerebellar neurones; assay: cells; assay type: cell-based; settings: Rattus norvegicus, 16 h, read-out: IC50 Tau phosphorylation inhibition in neurones measured by Tau-1 immunoreactivity
[2] = tested on: GSK-3; assay type: biochemical; settings: read-out: IC50 GSK-3 inhibition

SMILES | IC50 [1] | IC50 [2] | melting point
O=C(CCl)c1c(Br)sc(Cl)c1Cl [Compound 1, 1-(2-Bromo-4,5-dichloro-thiophen-3-yl)-2-chloro-ethanone] | 30000 nM | 2000 nM | –
O=C(CCl)c1cc(Cl)c(Cl)s1 [Compound 2, 2-Chloro-1-(4,5-dichloro-thiophen-2-yl)-ethanone] | – | 2500 nM | –
O=C(CCl)c1cc(Br)cs1 [Compound 3, 1-(4-Bromo-thiophen-2-yl)-2-chloro-ethanone] | – | 3000 nM | –
O=C(CCl)c1cscc1Cl [Compound 4, 2-Chloro-1-(4-chloro-thiophen-3-yl)-ethanone] | – | 25000 nM | –
O=C(CCl)c1c(Br)sc(Br)c1Br [Compound 5, 2-Chloro-1-(2 4,5-tribromo-thiophen-3-yl) -ethanone] | 30000 nM | 1000 nM | –
O=C(CCl)c1cc(Cl)sc1Cl [Compound 6, 2-Chloro-1-(2,5-dichloro-thiophen-3-yl)-ethanone] | – | 5000 nM | 43 to 44 °C
O=C(CCl)c1ccc(Br)s1 [Compound 8, 1-(5-Bromo-thiophen-2-yl)-2-chloro-ethanone] | – | 10000 nM | –
O=C(CCl)c1csc(C(=O)CCl)c1 [Compound 9, 2-Chloro-1-[4-(2-chloro-acetyl)-thiophen-2-yl]-ethanone] | – | 1500 nM | 154 to 155 °C
O=C(CCl)c1cccs1 [Compound 10, 2-Chloro-1-thiophen-2-yl-ethanone] | – | 50000 nM | –
Cc1sc(C(=O)CCl)cc1C(=O)CCl [Compound 11, 2-Chloro-1-[4-(2-chloro-acetyl)-5-methyl-thiophen-2-yl]-ethanone] | – | 5000 nM | –
O=C(CCl)c1cc(Br)c(Br)s1 [Compound 14, 2-Chloro-1-(4,5-dibromo-thiophen-2-yl)-ethanone] | – | 1000 nM | –
O=C(CCl)c1scc(Br)c1Br [Compound 15, 2-Chloro-1-(3,4-dibromo-thiophen-2-yl)-ethanone] | – | 500 nM | 86 to 88 °C
Cc1c(C(=O)CCl)csc1C(=O)CCl [Compound 16, 2-Chloro-1-[5-(2-chloro-acetyl)-4-methyl-thiophen-3-yl]-ethanone] | – | 2500 nM | 155 to 156 °C
Cc1ccsc1C(=O)CCl [Compound 18, 2-chloro-1-(3-methyl-thiophen-2-yl)-ethanone] | – | 75000 nM | –
CC(=O)c1ccc(C(=O)CCl)s1 [Compound 19, 1-(5-Acetyl-thiophen-2-yl)-2-chloro-ethanone] | – | 50000 nM | –
CC(=O)c1csc(C(=O)CCl)c1 [Compound 20, 1-(4-Acetyl-thiophen-2-yl)-2-chloro-ethanone] | – | 8000 nM | 118 to 119 °C

SMILES | IC50 [1] | IC50 [2] | melting point
O=C(CBr)c1scc(Br)c1Br [Compound 21, 2-Bromo-1-(3,4-dibromo-thiophen-2-yl)-ethanone] | – | 1000 nM | –
O=C(CBr)c1cc(Br)c(Br)s1 [Compound 22, 2-Bromo-1-(4,5-dibromo-thiophen-2-yl)-ethanone] | – | 1000 nM | –
O=C(CBr)c1ccc(Br)s1 [Compound 23, 2-Bromo-1-(5-bromo-thiophen-2-yl)-ethanone] | – | 1000 nM | –
O=C(CCl)c1ccc(Cl)cc1 [Compound 24, 2-Chloro-1-(4-chloro-phenyl)-ethanone] | – | 2500 nM | –
O=C(CCl)c1ccccc1 [Compound 25, 2-Chloro-1-phenyl-ethanone] | – | 50000 nM | –
O=C(CBr)c1ccc(Br)c(Br)c1 [Compound 27, 2-Bromo-1-(3,4-dibromo-phenyl)-ethanone] | – | 750 nM | 60 to 61 °C
O=C(CBr)c1ccc(Br)cc1 [Compound 28, 2-Bromo-1-(4-bromo-phenyl)-ethanone] | – | 500 nM | –
O=C(CBr)c1ccccc1 [Compound 30, 2-Bromo-1-phenyl-ethanone] | – | 5000 nM | –
O=C(CBr)c1ccc(-c2ccccc2)cc1 [Compound 33, 1-Biphenyl-4-yl-2-bromo-ethanone] | – | 2500 nM | –
N#Cc1ccc(C(=O)C(Br)Br)cc1 [Compound 39, 4-(2,2-Dibromo-acetyl)-benzonitrile] | – | 1500 nM | –
O=C(CBr)c1ccc(C(F)(F)F)cc1 [Compound 40, 2-Bromo-1-(4-trifluoromethyl-phenyl)-ethanone] | – | 5000 nM | –
O=C(c1ccc(C(F)(F)F)cc1)C(Br)Br [Compound 41, 2,2-Dibromo-1-(4-trifluoromethyl-phenyl)-ethanone] | – | 5000 nM | 40 to 41 °C
O=C(CBr)c1ccc(N2CCOCC2)cc1 [Compound 42, 2-Bromo-1-(4-morpholin-4-yl-phenyl)-ethanone] | – | 6000 nM | –
N#Cc1cccc(C(=O)C(Br)Br)c1 [Compound 44, 3-(2,2-Dibromo-acetyl)-benzonitrile] | – | 1000 nM | –
O=C(c1ccc(I)cc1)C(Br)Br [Compound 45, 2,2 -Dibromo-1-(4-iodo-phenyl)-ethanone] | – | 2000 nM | 77 to 78 °C
Nc1c(Br)cc(C(=O)CBr)cc1Br [Compound 47, 1-(4-Amino-3,5-dibromo-phenyl)-2-bromo-ethanone] | – | 3000 nM | 146 to 147 °C
